Measured values reported in patent publication US20240426838A1, “CRISPR/CAS-Associated Detection Assays, Methods and Kits” (BioPoint Pty Limited, priority 2021, published 2024).

Experiments:
Type in all cases: biochemical
[1] = system: Cas12a; assay: Electrophoretic mobility shift assay of chemical enhancers on CRISPR/Cas12a; conditions: optimal concentrations (10 mM DTT, 500 μM TCEP, 1% PVA, 0.04% Brij23)
Description: This is because fluorescence process may be independently affected by chemical enhancers used here. Briefly, the standard CRISPR/Cas12a reaction mixture was prepared as per point 1 above, then chemical enhancers were added at concentrations determined to be optimal (10 mM DTT, 500 μM TCEP, 1% PVA, 0.04% Brij23), and the same volume of 1×PBS was also used as the control. […] Alternatively, 50 μL of CRISPR/Cas12a and the chemical enhancer mixture was firstly mixed with 1 μL different concentrations of target ssDNA (5 μM, 10 μM, 15 μM, 20 μM), and then either 1 μL 1 μM triggering ssDNA was added or 1 μL PBS as control. The reaction mixtures were incubated at 26° C. for 60 mins, and then deactivated at 65° C. for 15 mins. Afterwards, 10 μL of each deactivated reaction mixture was mixed with 2 μL 6× loading dye and loaded onto 3% Agarose gel with 1× GelRed nucleic acid dye for voltage-constant electrophoresis at 60V for 100 mins.

[2] = molecular target: T1, Cas13a (Leptotrichia wadei, UniProt U2PSH1); assay: Evaluation of trans-cleavage activity of chemically induced CRISPR/Cas13a system
T1 construct: Twinstrep (N); SUMO (N); His tag (only implied by HisTrap purification); host or cells: E. coli
Description: For all trans-cleavage evaluation experiments, the CRISPR/Cas13a reaction mixture was prepared as follows: 10 μL 4 μM (40 μmol) of Cas13a protein was gently mixed with 2 μL 20 μM (40 μmol) gRNA in 1 mL reaction buffer. Then, 6 μL 20 μM (120 μmol) of pre-synthesized ssRNA target (FAM) was added and well mixed to form the standard reaction mixture.
Diverse types of chemicals were first dissolved in MilliQ water to produce high concentration storage solutions, then a certain amount of storage solution was added into the standard CRISPR/Cas13a reaction mixture to realize the certain concentration of chemical involved final reaction mixture.
2 μL 1 μM single strand trigger RNA was applied in 100 μL prepared CRISPR/Cas13a reaction mixture for starting the CRISPR reaction process. ID3 plate reader was applied for the detection of fluorescence readout from FAM modified target with the excitation wavelength of 480 nm and emission wavelength of 520 nm.

[3] = system: Cas12a; assay: Evaluation of trans-cleavage activity of Cas12a with chemical enhancers (fluorescence readout); conditions: for fluorescence intensity, fold of that in the control: optimised concentrations, Texas Red ssDNA target, incubation time 2 h; for performance with ssRNA target: ssRNA target (FAM), 37° C. incubation; for optimum concentration leading to the highest trans-cleavage rate: sulfhydryl reductant
Description: For all trans-cleavage activity evaluation experiments, the CRISPR/Cas12a reaction mixture was prepared as follows: 1 μL 100 μM ([…]) of Cas12a protein was gently mixed with 5 μL 20 μM ([…]) gRNA in 3.6 mL 1×NEB 2.1 buffer. […] Different chemical enhancers (sulfhydryl reductant and surfactant) were first dissolved in MilliQ water to produce high concentration storage solutions, then a certain amount of storage solution was added into the standard CRISPR/Cas12a reaction mixture to realize the final reaction mixture with defined concentration of enhancers.
5 μL 1 μM single strand trigger DNA was applied in 100 μL prepared CRISPR/Cas12a reaction mixture for starting the CRISPR reaction process. SpectraMax i3x multi-Mode Microplate Reader (Molecular devices) was applied for the detection of fluorescence readout.

[4] = system: Cas12a; assay: Optimization of chemical-based reaction buffer, RNA reporter based CRISPR/Cas12a system; conditions: chemicals added in NEB2.1 buffer; DTT 10 mM
Description: 10 μL 10 μM ([…]) Cas12a protein was gently mixed with 5 μL 20 μM ([…]) gRNA in 3.6 mL 1×NEB 2.1 buffer, which was diluted by Milli-Q water. Then, 6 μL 100 μM (0.6 nmol) ssRNA linked fluorescent reporter was added and well mixed to form the final reaction mixture. The prepared reaction mixture was kept on ice before use.
Three different chemicals were applied in the reaction buffer system, and the concentration of 1,4-dithiothreitol (DTT) was 10 mM, the concentration of Tris(2-carboxyethyl)phosphine hydrochloride (TCEP) was 0.5 mM, and the concentration of Polyvinyl alcohol (PVA) was 10 mg/mL.

[5] = system: Cas12a; assay: Trans-cleavage ability of antibody-Cas12a/gRNA (BAC) conjugate with ssDNA reporters; conditions: for reaction time to reach desired fluorescent signal intensity, faster than control: BAC conjugate, 10 mM DTT
Description: Firstly, 2 uL 100 μM (30 ug) Cas12a protein and 10 uL 20 μM gRNA were mixed in 30 uL NEB2.1 buffer to form the Cas12a/gRNA mixture solution. In the meanwhile, 3 uL modifier from the streptavidin conjugation kit (Abcam, ab102921) was mixed with 23 uL 1.3 mg/mL (30 ug) Cry104 antibody gently. Then, the two types of solutions were mixed together and incubated for 3 hours at room temperature. After the incubation, 3 uL quencher from the streptavidin conjugation kit (Abcam, ab102921) was added into the solution to stop the excess conjugation reaction. Finally, 50% glycerol (volume) was added into the prepared antibody-Cas12a/gRNA solution for long time storage in −20° C. freezer.
For comparison, an antibody-Cas12a conjugate was prepared according to the same procedure, where only Cas12a protein was mixed with the Cry104 antibody and modifier (i.e. without gRNA).
The standard CRISPR/Cas12a mixture was first prepared using Cry104-Cas12a/gRNA conjugate. Briefly, 100 pmol of Cry104-Cas12a/gRNA conjugate was added into 3.6 mL 1×NEB 2.1 buffer. Then, 6 μL 100 μM (0.6 nmol) ssDNA linked fluorescent reporter and 36 μL 1 M DTT were added and well mixed to form the final reaction mixture. The prepared reaction mixture was kept on ice before use.
In order to evaluate the trans-cleavage ability of Cry104-Cas12a/gRNA conjugate, 5 μL 1 μM triggering ssDNA was added into 100 μL prepared standard CRISPR/Cas12a mixture and incubated for 120 min at room temperature or 37° C. before fluorescence signal test using ID3 plate reader (Excitation wavelength of 570 nm and emission wavelength of 615 nm).

T1 sequence (U2PSH1 whole entry): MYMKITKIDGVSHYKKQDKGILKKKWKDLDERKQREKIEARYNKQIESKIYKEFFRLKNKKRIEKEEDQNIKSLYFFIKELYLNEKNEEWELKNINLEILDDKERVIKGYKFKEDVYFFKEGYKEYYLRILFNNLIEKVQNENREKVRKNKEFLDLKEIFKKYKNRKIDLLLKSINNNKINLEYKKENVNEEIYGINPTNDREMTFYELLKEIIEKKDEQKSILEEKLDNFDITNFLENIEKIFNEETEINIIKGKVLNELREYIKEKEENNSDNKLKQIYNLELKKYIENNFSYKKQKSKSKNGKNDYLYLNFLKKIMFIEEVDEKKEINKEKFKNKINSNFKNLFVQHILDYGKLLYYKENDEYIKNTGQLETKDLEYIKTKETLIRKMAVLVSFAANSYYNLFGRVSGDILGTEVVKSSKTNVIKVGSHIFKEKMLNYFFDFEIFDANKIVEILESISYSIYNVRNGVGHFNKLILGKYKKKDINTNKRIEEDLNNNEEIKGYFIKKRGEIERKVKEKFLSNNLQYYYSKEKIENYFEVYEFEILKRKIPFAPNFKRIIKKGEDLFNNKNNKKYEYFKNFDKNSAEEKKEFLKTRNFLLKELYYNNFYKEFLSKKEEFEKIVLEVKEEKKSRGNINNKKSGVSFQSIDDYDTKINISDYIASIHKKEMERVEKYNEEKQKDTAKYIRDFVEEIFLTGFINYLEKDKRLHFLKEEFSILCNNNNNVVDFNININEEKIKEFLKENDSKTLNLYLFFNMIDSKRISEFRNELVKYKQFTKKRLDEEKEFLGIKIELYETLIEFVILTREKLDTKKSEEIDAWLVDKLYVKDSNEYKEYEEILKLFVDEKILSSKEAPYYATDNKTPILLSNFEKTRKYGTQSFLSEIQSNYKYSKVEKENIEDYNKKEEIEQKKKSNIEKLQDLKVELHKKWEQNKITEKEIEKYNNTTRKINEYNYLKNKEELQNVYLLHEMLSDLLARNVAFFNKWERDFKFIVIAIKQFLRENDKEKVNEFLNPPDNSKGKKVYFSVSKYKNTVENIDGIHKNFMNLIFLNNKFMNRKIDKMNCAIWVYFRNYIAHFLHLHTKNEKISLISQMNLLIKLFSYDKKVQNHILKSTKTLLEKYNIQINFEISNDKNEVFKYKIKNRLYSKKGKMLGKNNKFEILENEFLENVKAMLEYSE

Molecule | effect in electrophoretic mobility shift assay [1] | optimum concentration [2] [mM] | fluorescence signal relative to controls without DTT ([3]; Cy5.5 ssDNA target, 120 min) | fluorescence intensity, fold of that in the control [3] [fold] | performance with ssRNA target [3] | optimum concentration leading to the highest trans-cleavage rate ([3]; Cas12a) [mM] | performance of RNA reporter based CRISPR/Cas12a biosensing system [4] | reaction time to reach desired fluorescent signal intensity, faster than control [5] [%] | reaction time to reach desired fluorescent signal intensity, faster than control ([5]; 37° C.) [%] | fluorescence signal output, factor versus control reaction ([5]; DTT 10 mM and 37° C.) | fluorescence signal increase of BAC conjugate ([5]; DTT 10 mM, room temperature) [times] | optimum concentration of non-ionic surfactant ([3]; Cas12a, Texas red DNA reporter) [%]
O[C@H](CS)[C@H](O)CS (racemic) [DTT, Dithiothreitol] | increased cleavage of the target DNA | 5 | around three | 1.3 | Enhanced performances | 10 | best performance | ~50 | ~70 | approximately 2 | ~1.4 | –
OCCS [2-ME, 2-Mercaptoethanol] | – | – | – | 3.4 | – | 1 | – | – | – | – | – | –
O=C(O)CCP(CCC(=O)O)CCC(=O)O [TCEP, Tris(2-carboxyethyl)phosphine] | – | – | – | 2.4 | Enhanced performances | 0.5 | – | – | – | – | – | –
Triton X-100 | – | – | – | – | – | – | – | – | – | – | – | 0.01
